Data set [1] is filed under the species Homo sapiens. In words: Selectivity ratio of IC50 for human eNOS to IC50 for human iNOS.
Data set [2] has as its target Nitric oxide sythases; iNOS & nNOS (Homo sapiens) (UniProt P29475+P35228). Put plainly: Selectivity ratio of IC50 for human nNOS to IC50 for human iNOS.
For data set [3], the target named is Nitric oxide synthase 1 (Homo sapiens, UniProt P29475). Put plainly: Inhibition of human nNOS expressed in HEK293 cells assessed as NO production by 2,3-diaminonapthalene-based fluorescence assay. The data set is classed as cell-based.
Chain of Nitric oxide synthase 1 (P29475 whole entry): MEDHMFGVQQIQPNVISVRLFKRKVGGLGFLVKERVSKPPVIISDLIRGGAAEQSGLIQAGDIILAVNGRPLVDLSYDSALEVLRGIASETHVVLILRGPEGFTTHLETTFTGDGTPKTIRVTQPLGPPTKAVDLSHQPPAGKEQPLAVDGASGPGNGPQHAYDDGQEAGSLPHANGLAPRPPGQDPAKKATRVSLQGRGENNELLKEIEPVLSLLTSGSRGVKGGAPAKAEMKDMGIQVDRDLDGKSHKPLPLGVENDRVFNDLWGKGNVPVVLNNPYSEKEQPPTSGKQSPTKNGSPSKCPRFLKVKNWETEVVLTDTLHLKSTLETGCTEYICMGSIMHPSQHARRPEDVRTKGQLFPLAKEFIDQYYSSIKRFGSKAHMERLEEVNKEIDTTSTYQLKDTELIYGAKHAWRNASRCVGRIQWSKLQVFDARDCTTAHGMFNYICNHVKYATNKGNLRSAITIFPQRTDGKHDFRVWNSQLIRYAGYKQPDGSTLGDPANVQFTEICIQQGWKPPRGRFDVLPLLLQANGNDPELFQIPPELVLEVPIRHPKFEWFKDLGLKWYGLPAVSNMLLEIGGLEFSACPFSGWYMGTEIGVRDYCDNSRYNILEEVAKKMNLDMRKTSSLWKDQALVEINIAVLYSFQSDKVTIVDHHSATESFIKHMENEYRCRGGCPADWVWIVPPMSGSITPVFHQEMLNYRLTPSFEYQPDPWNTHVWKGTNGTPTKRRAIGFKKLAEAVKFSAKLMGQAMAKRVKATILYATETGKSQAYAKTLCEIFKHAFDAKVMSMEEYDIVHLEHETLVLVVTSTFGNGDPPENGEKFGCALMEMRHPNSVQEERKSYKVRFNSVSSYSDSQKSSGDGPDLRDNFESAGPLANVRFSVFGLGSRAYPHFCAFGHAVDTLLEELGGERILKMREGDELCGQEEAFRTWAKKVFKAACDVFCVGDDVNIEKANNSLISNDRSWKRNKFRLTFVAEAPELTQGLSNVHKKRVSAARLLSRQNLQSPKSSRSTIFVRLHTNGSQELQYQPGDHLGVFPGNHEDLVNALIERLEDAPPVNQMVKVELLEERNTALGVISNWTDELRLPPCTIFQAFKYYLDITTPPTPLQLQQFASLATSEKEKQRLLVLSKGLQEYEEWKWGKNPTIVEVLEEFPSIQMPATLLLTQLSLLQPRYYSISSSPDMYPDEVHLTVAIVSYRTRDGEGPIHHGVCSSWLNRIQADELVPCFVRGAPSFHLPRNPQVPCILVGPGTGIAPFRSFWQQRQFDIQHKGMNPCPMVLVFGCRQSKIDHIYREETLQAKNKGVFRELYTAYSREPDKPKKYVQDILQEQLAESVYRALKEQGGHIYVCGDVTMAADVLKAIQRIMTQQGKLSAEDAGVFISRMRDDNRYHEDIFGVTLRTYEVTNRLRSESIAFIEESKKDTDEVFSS
Data set [4] relates to Mus musculus. In words: Antiinflammatory activity in po dosed mouse assessed as reduction in LPS-induced nitatre level in plasma. Format: functional.
The nature of data set [5]: AUC in mouse at 10 mg/kg, po. Format: ADME, organism-based. Also on record: dose 10 mg/kg, route oral. The settings on record: plasma.
The test system of data set [6] is Mus musculus. In words: Antiinflammatory activity in mouse assessed as reduction in LPS-induced nitatre level in plasma at 30 mg/kg, po. The data set is classed as functional. Also noted: scale not given: the % may be the effect or the level left.
Data set [7] is described as follows: Volume of distribution at steady state in mouse. Format: ADME, organism-based. The settings on record: in vivo, read-out: Vdss.
Data set [8] is described as follows: Cmax in mouse at 10 mg/kg, po. The data set is classed as ADME, organism-based. Also noted: dose 10 mg/kg, route oral. The conditions noted are these: in vivo.
The nature of data set [9]: Plasma clearance in mouse. Format: ADME, organism-based.
A short description of data set [10]: Oral bioavailability in mouse at 10 mg/kg. Format: ADME, organism-based. The conditions noted are these: in vivo.
Data set [11] has as its target T1, Nitric oxide synthase 3 (Homo sapiens, UniProt P29474).
T1 sequence (P29474 whole entry): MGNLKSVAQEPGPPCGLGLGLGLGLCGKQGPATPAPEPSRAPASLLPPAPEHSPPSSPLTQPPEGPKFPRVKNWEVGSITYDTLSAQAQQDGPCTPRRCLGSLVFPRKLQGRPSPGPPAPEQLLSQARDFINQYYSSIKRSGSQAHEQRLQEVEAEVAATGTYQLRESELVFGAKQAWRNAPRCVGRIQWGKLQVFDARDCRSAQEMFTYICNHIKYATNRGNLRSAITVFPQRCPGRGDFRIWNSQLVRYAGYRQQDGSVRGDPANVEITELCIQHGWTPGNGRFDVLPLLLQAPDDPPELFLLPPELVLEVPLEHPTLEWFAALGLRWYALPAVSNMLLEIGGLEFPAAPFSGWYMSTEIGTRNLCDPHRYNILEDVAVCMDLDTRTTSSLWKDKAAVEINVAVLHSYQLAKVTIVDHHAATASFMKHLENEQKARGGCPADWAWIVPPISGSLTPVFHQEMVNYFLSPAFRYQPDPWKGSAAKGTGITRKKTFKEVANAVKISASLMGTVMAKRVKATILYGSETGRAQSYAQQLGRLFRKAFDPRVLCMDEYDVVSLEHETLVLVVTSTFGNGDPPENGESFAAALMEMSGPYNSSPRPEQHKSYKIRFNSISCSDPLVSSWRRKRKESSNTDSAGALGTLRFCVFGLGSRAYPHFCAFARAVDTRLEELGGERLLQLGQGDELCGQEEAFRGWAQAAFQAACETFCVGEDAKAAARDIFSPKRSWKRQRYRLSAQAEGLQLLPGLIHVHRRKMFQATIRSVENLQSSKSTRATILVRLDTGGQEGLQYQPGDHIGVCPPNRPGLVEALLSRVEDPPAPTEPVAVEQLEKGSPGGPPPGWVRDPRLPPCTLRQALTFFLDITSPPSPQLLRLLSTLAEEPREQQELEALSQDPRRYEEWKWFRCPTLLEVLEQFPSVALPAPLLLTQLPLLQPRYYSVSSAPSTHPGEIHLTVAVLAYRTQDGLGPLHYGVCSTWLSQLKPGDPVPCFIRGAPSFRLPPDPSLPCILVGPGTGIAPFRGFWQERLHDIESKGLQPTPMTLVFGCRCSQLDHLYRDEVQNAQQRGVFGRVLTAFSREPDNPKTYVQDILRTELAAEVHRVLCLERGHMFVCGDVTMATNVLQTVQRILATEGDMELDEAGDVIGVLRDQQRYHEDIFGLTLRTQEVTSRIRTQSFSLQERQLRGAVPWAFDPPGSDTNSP
In words: Inhibition of human eNOS expressed in HEK293 cells assessed as NO production by 2,3-diaminonapthalene-based fluorescence assay. Format: cell-based.

The target in data set [12] is T2, Nitric oxide synthase, inducible (Mus musculus, UniProt P29477).
T2 sequence (P29477 whole entry): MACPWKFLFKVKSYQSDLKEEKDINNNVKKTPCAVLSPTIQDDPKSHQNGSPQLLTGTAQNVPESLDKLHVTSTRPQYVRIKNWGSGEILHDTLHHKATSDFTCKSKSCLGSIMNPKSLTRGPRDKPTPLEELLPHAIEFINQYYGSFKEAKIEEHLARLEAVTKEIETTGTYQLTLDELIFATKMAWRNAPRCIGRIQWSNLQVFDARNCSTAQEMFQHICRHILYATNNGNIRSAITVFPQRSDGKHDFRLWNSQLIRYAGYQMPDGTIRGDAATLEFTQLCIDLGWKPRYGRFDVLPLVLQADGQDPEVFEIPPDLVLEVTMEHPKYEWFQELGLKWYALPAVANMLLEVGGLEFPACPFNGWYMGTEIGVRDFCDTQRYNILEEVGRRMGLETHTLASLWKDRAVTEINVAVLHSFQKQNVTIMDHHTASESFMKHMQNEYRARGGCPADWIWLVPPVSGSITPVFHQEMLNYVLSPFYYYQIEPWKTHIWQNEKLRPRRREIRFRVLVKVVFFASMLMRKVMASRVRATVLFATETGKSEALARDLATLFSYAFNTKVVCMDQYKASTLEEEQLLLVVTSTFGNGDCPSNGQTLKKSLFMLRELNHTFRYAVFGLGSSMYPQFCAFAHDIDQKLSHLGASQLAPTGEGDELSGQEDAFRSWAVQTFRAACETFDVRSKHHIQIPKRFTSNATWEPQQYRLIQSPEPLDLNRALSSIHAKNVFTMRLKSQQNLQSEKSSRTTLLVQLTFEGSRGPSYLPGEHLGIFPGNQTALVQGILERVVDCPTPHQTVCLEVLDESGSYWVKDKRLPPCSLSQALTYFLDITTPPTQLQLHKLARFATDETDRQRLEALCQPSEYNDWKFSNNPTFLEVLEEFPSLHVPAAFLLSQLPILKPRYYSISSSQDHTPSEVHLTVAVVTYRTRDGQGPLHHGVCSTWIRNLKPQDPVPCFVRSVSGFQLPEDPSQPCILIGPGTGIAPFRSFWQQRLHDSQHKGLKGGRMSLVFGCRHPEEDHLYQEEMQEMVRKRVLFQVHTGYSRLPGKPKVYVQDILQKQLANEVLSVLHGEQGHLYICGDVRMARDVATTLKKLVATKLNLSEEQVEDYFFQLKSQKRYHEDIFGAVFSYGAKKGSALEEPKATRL
Put plainly: Inhibition of mouse iNOS.

A short description of data set [13]: Half life in mouse. The data set is classed as ADME, organism-based. The settings on record: in vivo.
Data set [14] addresses Nitric oxide synthase, inducible (Homo sapiens, UniProt P35228). In words: Inhibition of human iNOS expressed in HEK293 cells assessed as NO production by 2,3-diaminonapthalene-based fluorescence assay. The data set is classed as cell-based.

Chain of Nitric oxide synthase, inducible (Homo sapiens, UniProt P35228) (P35228 whole entry): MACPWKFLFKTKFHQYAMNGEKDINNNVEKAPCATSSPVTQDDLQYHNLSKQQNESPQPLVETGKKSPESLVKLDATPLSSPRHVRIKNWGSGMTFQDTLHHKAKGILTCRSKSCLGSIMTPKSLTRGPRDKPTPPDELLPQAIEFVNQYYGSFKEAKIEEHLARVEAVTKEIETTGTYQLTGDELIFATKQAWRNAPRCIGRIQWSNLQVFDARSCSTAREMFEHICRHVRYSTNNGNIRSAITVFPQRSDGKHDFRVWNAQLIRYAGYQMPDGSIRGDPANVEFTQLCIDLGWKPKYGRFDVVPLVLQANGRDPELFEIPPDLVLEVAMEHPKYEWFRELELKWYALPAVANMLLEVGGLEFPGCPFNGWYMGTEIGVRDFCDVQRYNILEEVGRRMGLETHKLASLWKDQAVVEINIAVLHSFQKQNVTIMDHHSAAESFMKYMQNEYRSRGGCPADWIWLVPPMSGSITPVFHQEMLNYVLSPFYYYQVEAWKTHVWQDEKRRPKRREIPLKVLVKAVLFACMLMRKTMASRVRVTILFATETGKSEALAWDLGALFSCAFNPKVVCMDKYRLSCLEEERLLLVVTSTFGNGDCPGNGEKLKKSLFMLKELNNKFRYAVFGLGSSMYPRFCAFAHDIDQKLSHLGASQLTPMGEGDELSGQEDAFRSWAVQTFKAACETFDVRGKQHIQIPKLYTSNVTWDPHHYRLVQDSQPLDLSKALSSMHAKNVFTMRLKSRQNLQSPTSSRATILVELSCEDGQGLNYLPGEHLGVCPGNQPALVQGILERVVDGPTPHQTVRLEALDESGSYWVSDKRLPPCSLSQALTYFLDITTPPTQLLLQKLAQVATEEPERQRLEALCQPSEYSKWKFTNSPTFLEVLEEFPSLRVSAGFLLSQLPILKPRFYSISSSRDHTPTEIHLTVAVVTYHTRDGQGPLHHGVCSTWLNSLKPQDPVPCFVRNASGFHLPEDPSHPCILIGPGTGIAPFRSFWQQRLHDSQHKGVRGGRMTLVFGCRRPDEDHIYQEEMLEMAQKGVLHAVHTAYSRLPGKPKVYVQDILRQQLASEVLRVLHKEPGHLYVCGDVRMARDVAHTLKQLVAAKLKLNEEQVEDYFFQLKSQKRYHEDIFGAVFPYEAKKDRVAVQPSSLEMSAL
Chain of Nitric oxide sythases; iNOS & nNOS (Homo sapiens) (P29475 whole entry, looked up): as the sequence (P29475 whole entry) above
Chain of Nitric oxide sythases; iNOS & nNOS (Homo sapiens) (P35228 whole entry, looked up): as the sequence (P35228 whole entry) above

As for `O=c1cc(CN(c2cccc(Cl)c2)c2cnccn2)c2ccc(F)c(F)c2[nH]1`, the Ratio IC50 came out at 300 in [1] and 2 in data set [2]. Also, the IC50 in data set [3] worked out at 12 nM; in data set [11], 1500 nM; in data set [12] it was 5 nM; in data set [14], 5 nM. In [4], the ED50 was determined as 3.6 mg/kg. Besides, in data set [5], the AUC came out at 120 ng·h/mL. Further, the Activity in [6] is listed as 80%. Besides, in [7], the Vd is 1.7 L/kg. The Cmax in data set [8] amounted to 45 ng/mL. The compound further came in with a clearance in data set [9] of 34 mL/min/kg. Further, in [10], the bioavailability was 3%. The compound also gave a half-life in data set [13] of 2.1 h.
Take `O=c1cc(Cn2c(C3CCC3)nc3nccnc32)c2ccc(F)c(F)c2[nH]1`: in data set [4], the ED50 stood at 1 mg/kg. In data set [5], this compound came in with an AUC of 25000 ng·h/mL. In addition, the Vd in [7] was 0.4 L/kg. Besides, the IC50 in data set [12] was found to be 500 nM; in data set [14], 91 nM.

What is called IC50 is the concentration at which inhibition is half-maximal. Usually ED50 stands for the midpoint of the dose-response relation. In general, AUC refers to concentration integrated over time. One may read the Cmax as the highest concentration seen after dosing. By clearance is commonly meant the rate of elimination divided by the concentration. Usually bioavailability stands for the share of a dose that reaches the circulation, judged against a reference dose that is usually intravenous. A word on the half-life: it is how long it takes for the measured level to halve.

Source of the values: ChEMBL document CHEMBL1944593, “Heteroaromatic-aminomethyl quinolones: potent and selective iNOS inhibitors” (Bioorg Med Chem Lett, 2012).
